Data published in PMC10740831, “Synthesis, Hydrolytic Stability and In Vivo Biological Study of Bioconjugates of the Tetrapeptides FELL Containing Pyrrole Moiety” (Biomedicines, 2023).
Entries after “also recorded” stand apart in the source; their conditions may differ. Peptide text beside a SMILES is read from it. * marks the point of attachment. X1 = CCOC(=O)c1c(C)[nH]c(C(=O)*)c1C; X2 = CCOC(=O)c1[nH]c(C)c(C(=O)*)c1C

What was measured:
opioid receptor = assay: Paw pressure test after Naloxone pretreatment; assay type: in vivo, rat; settings: Naloxone 1 mg/kg i.p. before bioconjugate 0.25 mg/kg i.p.; compared with no pretreatment; Figure 7
Method: (§1) Several groups of experimental animals were used. Each group contains 8–10 rats: • The control group receives 0.2 mL of saline intraperitoneally injected (i.p.); • Six experimental groups receiving one of the 6 tested substances (0.25 mg/kg, i.p.)—pyrrole acid A, pyrrole acid B, BB19A, BB19B, BB20A, and BB20B; • Four experimental groups receiving Naloxone (1 mg/kg, i.p.) before the administration of the newly synthesized bioconjugates BB19A, BB19B, BB20A, and BB20B; • Four experimental groups receiving AM251 (1.25 mg/kg, i.p.) before the administration of the newly synthesized bioconjugates BB19A, BB19B, BB20A, and BB20B.
(§2) Pretreatments with the non-selective opioid receptor antagonist Naloxone or the cannabinoid receptor antagonist AM251 were performed in order to estimate the types of receptors engaged in the effects observed—respectively, the opioid or the cannabinoid receptor [35].
(§3) An analgesiometer was used to measure the specific changes in the mechanical nociceptive thresholds (PPT) of experimental animals). A pressure was applied to the hind-paw and the value (g) required to elicit a nociceptive response (such as squeak or struggle) was taken as the mechanical nociceptive threshold. A cut-off value of 500 g was used to prevent damage of the paw. The targeted compounds were administrated and further nociception was evaluated each 10 min from the 10th min until the 50th min.
(§4) The results were statistically assessed by one-way analysis of variance followed by Newman-Keuls post hoc comparison test. One-Way ANOVA has been used to analyze the data. Values are represented in arbitrary units (AU) according to the scale, as mean ± S.E.M. Values of p < 0.05 were considered to indicate statistical significance.

cannabinoid receptor = assay: Paw pressure test after AM251 pretreatment; assay type: in vivo, rat; settings: AM251 1.25 mg/kg i.p. before bioconjugate 0.25 mg/kg i.p.; for time points with paradoxically higher analgesia after AM251 pretreatment than without pretreatment: Figure 7
Method: as §1, §2, §3, §4

male Wistar rats = assay: Nociceptive Paw Pressure test (Randall–Selitto test), analgesic activity; assay type: in vivo, rat; settings: 0.25 mg/kg i.p.; for course of analgesic activity over time (in words) / analgesic activity (paw pressure thresholds): Figure 6; for analgesic activity (paw pressure thresholds): male Wistar rats, 8–10 per group, measured every 10 min from 10th to 50th min; for highest analgesic activity reached, as percent of that of the parent acid: BB20A vs acid A, BB19B vs acid B
Method: The male Wistar rats (180–200 g) were used for all experiments. All animals were kept at around 22 °C and under normal conditions. The experimental procedures are realized in the interval 10:00 a.m. to 1:00 p.m. and are approved by the Research Ethics Commission of the Medical University-Sofia.
as §1, §3, §4

[1] = previously evaluated in vivo; cited from earlier work
Source text: Parent compound FELL (Phe-Glu-Leu-Leu-OH) and four analogs of the tetrapeptide were previously evaluated in vivo for their analgesic activity.

[2] = tested on: white blood cell accumulation in the bronchoalveolar fluid; settings: cited from earlier work
Source text: In this context, tetrapeptide sequence H-FELL-OH is known from the literature as an anti-inflammatory agent.

## CCOC(=O)c1[nH]c(C)c(C(=O)N[C@@H](Cc2ccccc2)C(=O)N[C@@H](CCC(=O)O)C(=O)N[C@@H](CC(C)C)C(=O)N[C@@H](CC(C)C)C(=O)O)c1C [BB20B, B-Phe-Glu-Leu-Leu-OH] (X2-FELL-OH)
Opioid receptor
  analgesic activity after opioid receptor blockade (Naloxone pretreatment), in words: Opioid receptors appear to be involved
Cannabinoid receptor
  involvement of cannabinoid receptors in the analgesic effect (AM251 pretreatment), in words: Cannabinoid receptors are also involved
Male Wistar rats
  analgesic activity / PPTs on the 10th min compared with parent pyrrole acid: equivalent to the parent beta acid’s ones
  analgesic activity (paw pressure thresholds): exhibited analgesic activity
Male Wistar rats; 10th to 50th min
  course of analgesic activity over time (in words): slowly decreased to control levels

## CCOC(=O)c1c(C)[nH]c(C(=O)N[C@@H](Cc2ccccc2)C(=O)N[C@@H](CCC(=O)O)C(=O)N[C@@H](CC(C)C)C(=O)N[C@@H](CC(C)C)C(N)=O)c1C [BB19A, A-Phe-Glu-Leu-Leu-NH2] (X1-FELL-NH2)
Opioid receptor
  analgesic activity after opioid receptor blockade (Naloxone pretreatment), in words: significant analgesia that even initially exceeded that of the substances without the pretreatment; also recorded: naloxone-independent in the first phase and naloxone-dependent in the second
Cannabinoid receptor
  time points with paradoxically higher analgesia after AM251 pretreatment than without pretreatment: 10th min
Male Wistar rats; 10th to 50th min
  course of analgesic activity over time (in words): biphasic activity
Male Wistar rats; 50th min
  analgesic activity on the 50th min compared with parent pyrrole acid: exceeded the parent alpha acid
Male Wistar rats
  analgesic activity (paw pressure thresholds): exhibited analgesic activity

## CCOC(=O)c1c(C)[nH]c(C(=O)O)c1C [acid A, 4-(Ethoxycarbonyl)-3,5-dimethyl-1H-pyrrole-2-carboxylic Acid]
Male Wistar rats
  duration of short-lasting analgesic activity: about 10 min
  time window of short-lasting analgesic activity: between the 10th and 20th min
Male Wistar rats; up to 50th min
  decrease of analgesic activity until the end of the estimated time: 56%

## CCOC(=O)c1c(C)[nH]c(C(=O)N[C@@H](Cc2ccccc2)C(=O)N[C@@H](CCC(=O)O)C(=O)N[C@@H](CC(C)C)C(=O)N[C@@H](CC(C)C)C(=O)O)c1C [BB20A, A-Phe-Glu-Leu-Leu-OH] (X1-FELL-OH)
Opioid receptor
  analgesic activity after opioid receptor blockade (Naloxone pretreatment), in words: Opioid receptors appear to be involved
Cannabinoid receptor
  involvement of cannabinoid receptors in the analgesic effect (AM251 pretreatment), in words: they “turn on” at a later stage—after the 20th minute
  time points with paradoxically higher analgesia after AM251 pretreatment than without pretreatment: 10th min
Male Wistar rats; 10th to 50th min
  course of analgesic activity over time (in words): decreased to control values
Male Wistar rats
  analgesic activity (paw pressure thresholds): exhibited analgesic activity
  highest analgesic activity reached, as percent of that of the parent acid: more than 87%

## CCOC(=O)c1[nH]c(C)c(C(=O)O)c1C [acid B, 5-(Ethoxycarbonyl)-2,4-dimethyl-1H-pyrrole-3-carboxylic Acid]
Male Wistar rats
  duration of short-lasting analgesic activity: about 10 min
  time window of short-lasting analgesic activity: between the 20th and 30th min
Male Wistar rats; 50th min
  PPTs on the 50th min compared with controls: almost equivalent to the controls’

## Phe-Glu-Leu-Leu-OH [H-FELL-OH, parent tetrapeptide known as an anti-inflammatory agent]
[1]
  analgesic activity over time (in words): constantly increasing analgesic activity for the total time of the evaluation
[2]
  reduction of the total number of white blood cell accumulation in the bronchoalveolar fluid in lungs: 51%

## B-Phe-Glu-Leu-Leu-NH2 [BB19B, bioconjugate of pyrrole acid B and tetrapeptide FELL-NH2]
Opioid receptor
  analgesic activity after opioid receptor blockade (Naloxone pretreatment), in words: significant analgesia that even initially exceeded that of the substances without the pretreatment
Cannabinoid receptor
  time points with paradoxically higher analgesia after AM251 pretreatment than without pretreatment: 10th, 20th, and 30th min
Male Wistar rats
  analgesic activity / PPTs on the 10th min compared with parent pyrrole acid: more significant than the parent beta acid
  analgesic activity (paw pressure thresholds): exhibited analgesic activity
  highest analgesic activity reached, as percent of that of the parent acid: 64.4%
Male Wistar rats; 10th to 50th min
  variation of analgesic activity during the whole time of the experiment: less than 7%
  course of analgesic activity over time (in words): sustained analgesic activity
Male Wistar rats; 50th min
  analgesic activity on the 50th min compared with parent pyrrole acid: more significant than the parent beta acid

## Phe-Glu-Leu-Leu-NH2 [C-terminal amide of the tetrapeptide FELL]
[1]
  analgesic activity over time (in words): gradually increased analgesic activity with time
